Molecules are shown by their SMILES.

This data set is described as follows: gradient 5% acetonitrile 3 min, to 50% in 2 min, to 85% in 15 min, held 3 min, 100 µL/min. Particulars: column: Zorbax Extend-C18 2.1 x 50 mm; eluents: water / acetonitrile, 0.1% formic acid. In short, it runs like this:
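Standards, all pure, were combined into mixtures of ~100 molecules and run at 100 μL/min on a Zorbax Extend-C18 column (2.1 × 50 mm, 1.8 μm) with water and acetonitrile, each containing 0.1% formic acid. A coupled quadrupole time-of-flight mass spectrometer operated in positive and negative ionization mode. Retention time values come from computationally picked adduct peaks, each inspected manually.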
Compound `CC1CCCN(S(=O)(=O)c2cc(C(=O)NCCC3=CCCCC3)n(C)c2)C1` (stereo not given) gave an RP-LC retention time of 1140 s.
Compound `CC(C)Cn1ccc2c(cc(C(=O)NCc3cc(F)cc(F)c3)n2C)c1=O` displayed an RP-LC retention time of 850 s.
Next, `CCN1C(=O)c2cccnc2Sc2cc(CNC(=O)Cc3ccccc3F)ccc21`: 767 s; `Cc1ccc(-c2cc(C(=O)Nc3ccc4c(c3)CCC(=O)N4)c3ccccc3n2)cc1C`: 949 s; `COC[C@@H]1CN(S(=O)(=O)c2cccc(F)c2)C[C@H]1c1ccncc1`: 649 s.
As for `O=C(Nc1cccnc1)C1CCCN(c2nnc3ccc(Cl)cn23)C1` (stereo not given), the figure is 567 s; as for `CCn1c(=O)c(N2CCC(C(=O)NCCc3c[nH]c4ccc(C)cc34)CC2)nc2ccccc21`, 966 s; as for `O=C(NCC(c1cccnc1)N1CCc2ccccc21)C(=O)Nc1ccc2c(c1)OCCO2` (stereo not given), 730 s.
Turning to `O=C(CN1C(=O)NC2(CCCCC2)C1=O)NCc1ccc2c(c1)OCO2`, the RP-LC retention time amounted to 699 s.
`CSc1ccccc1NC(=O)C(=O)NCC1CCN(Cc2ccco2)CC1` showed an RP-LC retention time of 579 s.
For the compound `O=C(C1CCCO1)N1CCN(c2ccc(-n3cccn3)nn2)CC1` (stereo not given), the RP-LC retention time came out at 586 s.
Next, `CNC(=O)c1n[nH]c2c1CC(C)CC2` (stereo not given): 642 s.
`Cc1cccc(Cn2c(=O)n(CCNC(=O)C(C)C)c3ncccc32)c1` had an RP-LC retention time of 769 s.
As for `O=S(=O)(c1cccc(Br)c1)N1CCc2nc(-c3ccc(F)cc3)ncc2C1`, the figure is 1160 s; as for `CC1(C)C(=O)N(CC(=O)Nc2cccc(Br)c2)c2ccccc21`, 968 s; as for `Cc1c(C(=O)Nc2c3c(nn2C(C)(C)C)CSC3)cccc1[N+](=O)[O-]`, 814 s.
The compound `CC(NC(=O)CN1c2ccc(F)cc2-c2ccccc2S1(=O)=O)c1ccccc1` (stereo not given) displayed an RP-LC retention time of 937 s.
Consider `Cn1c(COc2ccc(Cl)cc2)nc2ccccc21`, for which the RP-LC retention time stood at 647 s.
For the compound `COc1ccc(OC)c(NC(=O)N2CCN(c3cc(C)nc(N4CCOCC4)n3)CC2)c1`, the RP-LC retention time was 627 s.
In turn, `CC1CCN(S(=O)(=O)c2ccc3c(c2)CCCC(=O)N3CC(=O)N(C)C2CCCCC2)CC1` returned an RP-LC retention time of 1040 s.
With `COc1ccc(-n2c(=O)n(C)c(=O)c3cc(C(=O)Nc4ccc5c(c4)OCO5)cnc32)cc1`, the RP-LC retention time was 841 s.
As for `O=C(NCc1ccc2c(c1)OCO2)C1CCN(c2nc3ccccc3o2)CC1`, the figure is 754 s; as for `CCOc1ccc(C2Cn3nnc(-c4nc(-c5ccc(F)cc5)no4)c3CO2)cc1` (stereo not given), 1130 s.
As for `COc1cccc(-n2c(=O)c(C(=O)NC3CCCCC3)c(O)c3cccnc32)c1`, the RP-LC retention time amounted to 1280 s.
As for `COc1ccc(NC(=O)N2CCC3(C2)C(=O)Nc2ccccc23)c(OC)c1` (stereo not given), the figure is 678 s; as for `O=C(c1cc2n(n1)CCCN(Cc1ccc(F)cc1)C2=O)N1CCN(c2ccccn2)CC1`, 802 s.
As for `Cn1ccnc1N1CCN(C(=O)CSCc2ccccc2)CC1`, the figure is 571 s; as for `COC(=O)c1ccc2c(=O)n(-c3ccc(C)c(F)c3)c(N3CCSCC3)nc2c1`, 1100 s; as for `O=C(NCc1ccc(F)cc1F)C1CCCN(c2cn[nH]c(=O)c2)C1` (stereo not given), 660 s.
In turn, `CN(CCNC(=O)c1c2c(cn(-c3ccccc3)c1=O)C(=O)CC(C)(C)C2)C1CCCCC1` gave an RP-LC retention time of 720 s.
As for `Cc1sc(-c2ccn[nH]2)cc1NC(=O)c1ccc2nc[nH]c2c1`, the figure is 670 s; as for `Nc1cc(C2CCN(S(=O)(=O)c3cccc4cccnc34)CC2)no1`, 702 s; as for `Cc1cccc(-c2noc(CN3C(=O)COc4cc(C)ccc43)n2)c1`, 1110 s.
The compound `CCNC(=O)C1CCN(S(=O)(=O)c2ccc(OCC)c(C)c2)CC1` came in with an RP-LC retention time of 796 s.
Compound `O=S(=O)(NC1CCCCC1)c1ccc(-c2nnc(C3CCC3)o2)o1` returned an RP-LC retention time of 968 s.
As for `COc1ccc(C)cc1NC(=O)N1CCC2(CC1)NC(=O)c1ccc(Cl)cc1N2`, the figure is 806 s; as for `Cc1ccc(S(=O)(=O)/C=C/C#N)cc1`, 929 s.
As for `C=CCN1C(=O)COc2ccc(-c3nc(NC(=O)c4ccccc4Cl)sc3C)cc21`, the figure is 1010 s; as for `CNC(=O)C1CCCN(c2nc3ncn(CC(=O)Nc4c(C)cc(C)cc4C)c(=O)c3s2)C1` (stereo not given), 661 s.
Compound `CCN(CC)S(=O)(=O)c1ccc2c(c1)N(CC(=O)N1CCCC1)C(=O)C1CCCCN21` (stereo not given) came in with an RP-LC retention time of 835 s.
Next, `CCc1ccccc1NS(=O)(=O)c1ccc(-c2nnc(C3CCC3)o2)o1`: 960 s; `O=C(Nc1cccc(-c2ccc(N3CCCCC3)nn2)c1)Nc1ccccc1F`: 742 s; `COCCC(=O)Nc1cnn(-c2ncc(N3CCCC3)cn2)c1`: 642 s.
As for `Cc1sc2cc(C(=O)NCC3CC3)[nH]c2c1CN1CCCCC1`, the figure is 634 s; as for `COC(=O)Cn1c(C)cc(=O)n2nc(-c3ccccc3C)nc12`, 761 s.
Next, `CCn1c(N2CCCC(C(=O)NCC3CCN(Cc4ccccc4C)CC3)C2)cc(=O)n(C)c1=O` (stereo not given): 643 s.
`O=C(NCc1ccc(F)cc1F)C1CCCN(c2ncnc3nn(-c4ccc(F)cc4)cc23)C1` (stereo not given) showed an RP-LC retention time of 700 s.
Next, `Cc1[nH]c(C(=O)N2CCCC(C(=O)NC3CCCCCC3)C2)c(C)c1C(=O)OC(C)C` (stereo not given): 944 s; `C=C(C)Cn1c(COc2ccccc2)nc2ccccc21`: 718 s; `Cc1ccccc1N1CCN(S(=O)(=O)c2cc3n(c2)CCCN(C)C3=O)CC1`: 813 s.
Next, `CCCc1ccc(S(=O)(=O)N2CCC(C(=O)NCc3csc(-c4cccs4)n3)CC2)cc1`: 1050 s; `Cc1ccc(N2CC(C(=O)NCc3nn(C)c4ccccc34)CC2=O)cc1` (stereo not given): 782 s.
As for `CCCC(O)c1nc2ccccc2n1CC(=O)N(c1ccccc1)C(C)C` (stereo not given), the figure is 734 s; as for `CN1CCN(CCCNc2ccc(-c3nc(-c4ccc(F)cc4)no3)cn2)CC1`, 626 s.
`COc1ccccc1OCCCn1c(C2CCCO2)nc2ccccc21` (stereo not given) had an RP-LC retention time of 602 s.
Next, `COc1ccc(-c2nnc(COc3cccc(NC(=O)c4ccoc4)c3)o2)cc1`: 866 s; `C#C[C@]1(O)CC[C@H]2[C@@H]3CCC4=Cc5oncc5CC4(C)[C@H]3CCC21C` (stereo not given in full): 1180 s.
Next, `CN1C(=O)CCc2cc(NC(=O)Cc3ccccc3Cl)ccc21`: 755 s; `CCn1nc(C)c(CCNC(=O)C(C)n2c3ccccc3c3cnn(C)c(=O)c32)c1C` (stereo not given): 656 s; `CCc1ccc(NC(=O)C2Cc3cc(S(=O)(=O)N4CCCCC4)ccc3N2C(C)=O)cc1` (stereo not given): 864 s.
Next, `COCCCNc1c(-c2ccc(C)cc2)nc2sc(C(=O)N(C)C)c(C)n12`: 732 s; `Cc1sc(-c2noc(C3CC3)n2)cc1S(=O)(=O)N1CCC(C(=O)NC2CCCCCC2)CC1`: 1080 s; `CN(Cc1ccco1)C(=O)c1nc2ccccn2c1-c1ccc(F)cc1`: 705 s.
`O=C(c1cnccn1)N1CCCn2nc(-c3cccs3)cc2C1` had an RP-LC retention time of 689 s.
Compound `Cc1nc(-c2ccccc2)cc2nn(CC(=O)NCc3ccccc3)c(=O)n12` registered an RP-LC retention time of 873 s.
`Cc1ccc(NC(=O)Cn2cc3c(n2)CCC(C)C3)cc1C` (stereo not given) showed an RP-LC retention time of 969 s.
For `CC(C)C(NC(=O)c1ccc([N+](=O)[O-])cc1)c1nc2ccccc2[nH]1` (stereo not given), the RP-LC retention time is 591 s.
As for `COc1ccc(C(O)CN2CCN(c3ccccc3)CC2)cc1OC` (stereo not given), the figure is 607 s; as for `O=C1CC(c2nc(-c3ccc(Br)cc3)no2)CN1c1ccccc1` (stereo not given), 1080 s; as for `Cc1cc(C)cc(NC(=O)NC2CCN(c3ccc(F)c(C)c3)C2=O)c1` (stereo not given), 874 s.
The compound `Cn1c2c(c3ccccc31)C(C(=O)NCc1ccc(F)cc1)N(Cc1cccnc1)C(=O)CS2` (stereo not given) came in with an RP-LC retention time of 703 s.
Next, `O=C(O)c1ccc(N2CCCC2)c(NC(=O)c2cccs2)c1`: 710 s; `COc1ccccc1C1(CNS(=O)(=O)c2ccc3c(c2)CCCC3)CCOCC1`: 1000 s.
Next, `CCCn1cc(CCNC(=O)Nc2cc(C)ccc2C)c2cccnc21`: 808 s.
As for `CCCc1nc(-c2cc3ccc(C)cc3nc2NC2CCCC2)no1`, the figure is 968 s.
Take `COc1cn(C)c(C(=O)NCCC(c2ccccc2)c2ccccc2)cc1=O`: the RP-LC retention time came out at 667 s.
For `CN(C)CCNC(=O)c1ccc(CS(=O)c2ccc(F)cc2)o1` (stereo not given), the RP-LC retention time is 569 s.
As for `CCOC(=O)c1c(C)[nH]c(C(=O)N2CCC(C(C)C(=O)NCc3ccc(F)cc3)CC2)c1C` (stereo not given), the figure is 805 s.
In turn, `CC(=O)N1CCc2cc(N3CC(C(=O)Nc4cccc(Cl)c4F)CC3=O)ccc21` (stereo not given) returned an RP-LC retention time of 742 s.
In the case of `CCOc1ccc(-c2noc(Cn3c(=O)n(C(C)C)c(=O)c4ccccc43)n2)cc1`, the RP-LC retention time was 1190 s.
